Data as given in patent publication EP1401829B1, “NOVEL HETEROCYCLIC ANTIBACTERIAL COMPOUNDS” (Microbiotix, Inc., priority 2001, dated 2002).
Values after ≈ are worked out from the molar mass of the structure shown.

Legend:
E. fecalis = assay: Minimal Inhibitory Concentration (MIC) determination, 96 well plates; format: cell-based, Enterococcus fecalis; conditions: Enterococcus; HBI medium, 16 to 18 hours at 37°C; read-out: MIC (µg/ml) E. fecalis
Outline: (§1)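 Broth growth in Heart-Brain Infusion medium, seeded at about 1x10^5 CFU/ml, 16 to 18 hours at 37°C. Growth read at OD 600 nm as percent of untreated control; five concentrations per drug, five data points each, MIC reported in µg/ml.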

E. fecium = assay: as above; format: cell-based, Enterococcus fecium; conditions: Enterococcus; HBI medium, 16 to 18 hours at 37°C; read-out: MIC (µg/ml) E. fecium
Outline: as §1

MRSA1094 = assay: MIC against clinically relevant strains; format: cell-based; conditions: Staphylococcus aureus; methicillin resistant S. aureus strain
Description: (§2) The following methods were used to characterize representative compounds. Minimal Inhibitory Concentration (MIC) determinations. MIC values were determined in 96 well plates, with bacterial growth monitored at OD 600 nm in 200µl following an initial bacterial seeding at approximately 1x10^5 colony forming units (CFU)/ml. Each drug is evaluated at five concentrations, with five data points at each dilution. MIC values (µg/ml) were determined against actively growing cultures in Heart-Brain Infusion (HBI) medium. Cell growth in cultures supplemented with a test compound was calculated as a percent of control at OD 600 nm after 16 to 18 hours at 37°C. This plate format conserves test compound and provides precise, quantitative data with low standard deviation determinations. Polymerase IIIC (Pol IIIC) assay. DNA polymerase activity (or inhibition thereof) was measured in a 96-well plate format. B. subtilis Pol IIIC was isolated as described by Hammond and Brown (Protein Expr. Purif., 3: 65-70 (1992)). Each 25 µl assay contained 30 mM Tris, pH 7.5, 10 mM magnesium acetate, 4 mM dithiothreitol, 20% glycerol, with 25 µM dATP, dCTP, dGTP and 10 µM dTTP (^3H-labelled at 1.44 Ci/mmole) and 0.4 mg/ml activated calf thymus DNA as substrates, as described previously (see Barnes et al, op. cit). Assays were initiated by the addition of 0.025 to 0.06 units of enzyme 1 unit is the amount required to incorporate 250 pmoles of [^3H] dTMP in a standard assay), incubated for 10 minutes at 30°C and terminated by the addition of 200 µl of cold 10% trichloroacetic acid (TCA),10 mM sodium pyrophosphate. Precipitated labeled DNA was collected on glass fiber filter plates, washed, dried, and counted in a liquid scintillation counter. Determination of Ki values. DNA polymerase activity was measured in a 96-well plate format in the absence of dGTP or dATP, depending on the structure of the test compound. Each 25 µl assay contained 30 mM Tris, pH 7.5, 10 mM magnesium acetate, 4 mM dithiothreitol, 20% glycerol, with 25 µM dATP, dCTP, and 10 µM dTTP (^3H-labelled at 1.44 Ci/mmole) and 0.4 mg/ml activated calf thymus DNA as substrates, as described previously. To each well were added 2 µl of compound solution to give final concentrations ranging from 20 - 0.027 µg/ml in the assay. Assays were initiated by the addition of 0.025 to 0.06 units of enzyme (1 unit is the amount required to incorporate 250 pmoles of [^3H] dTMP in a standard assay), incubated for 10 minutes at 30 °C and terminated by the addition of 200 µl of cold 10% trichloroacetic acid, 10 mM sodium pyrophosphate. Precipitated labeled DNA was collected on glass fiber filter plates, washed, dried, and counted in a liquid scintillation counter. Ki is the concentration of test compound that reduces the control polymerase IIIC activity by 50 percent.
(§3) Compounds were also tested for antibacterial activity against certain clinically relevant strains, e.g., methicillin sensitive (MSSA) and methicillin resistant (MRSA) strains of Staphylococcus aureus.

MRSA1132 = assay: MIC against clinically relevant strains; format: cell-based; conditions: Staphylococcus aureus; methicillin resistant S. aureus strain
Description: as §2, §3

MRSA 1123 = assay: MIC against clinically relevant strains; format: cell-based; conditions: Staphylococcus aureus, methicillin resistant S. aureus strain
Description: as §2, §3

Row | SMILES | MIC (E. fecalis) [µg/mL] | MIC (E. fecium) [µg/mL] | MIC (MRSA1094) [µg/mL] | MIC (MRSA1132) [µg/mL] | MIC (MRSA 1123) [µg/mL]
1 | CCc1cc(Nc2cc(=O)n(CCCCN3CCN(c4cc5c(cc4F)c(=O)c(C(=O)O)cn5C4CC4)CC3)c(=O)[nH]2)ccc1C [Compound 2, 3-{4-[1-(1-cyclopropyl-3-carboxy-4-oxo-6-fluoro-7-quinolyl)-4-piperazinyl]butyl}-6-(3-ethyl-4-methylanilino)uracil] | 1.25 (≈ 1.98 µM) | 1.25 (≈ 1.98 µM) | 0.625 (≈ 0.991 µM) | 0.625 (≈ 0.991 µM) | 0.625 (≈ 0.991 µM)
2 | CCc1cc(Nc2cc(=O)n(CCCCN3CCN(c4cc5c(cc4F)c(=O)c(C(=O)O)cn5C4CC4)CC3)c(=O)[nH]2)ccc1C.CS(=O)(=O)O [Compound 10, 3-{4-[1-(1-cyclopropyl-3-carboxy-4-oxo-6-fluoro-7-quinolyl)-4-piperazinyl]butyl}-6-(3-ethyl-4-methylanilino)uracil methanesulfonate] | 1.25 | 2.5 | 1.25 | 0.625 | 1.25
3 | CCc1cc(Nc2cc(=O)n(CCCCN3CCN(c4c(F)cc5c(=O)c(C(=O)O)cn(C6CC6)c5c4F)CC3C)c(=O)[nH]2)ccc1C (stereo not drawn) [Compound 70, 3-{4-[1-(1-cyclopropyl-3-carboxy-4-oxo-6,8-difluoro-7-quinolyl)-3-methyl-4-piperazinyl]butyl}-6-(3-ethyl-4-methylanilino)uracil] | 0.95 (≈ 1.43 µM) | 1.25 (≈ 1.89 µM) | 0.94 (≈ 1.42 µM) | 0.31 (≈ 0.468 µM) | 0.94 (≈ 1.42 µM)
